Results on 11 compounds are retold here after paper PMC3566764, “Thioester derivatives of the natural product psammaplin A as potent histone deacetylase inhibitors” (Beilstein Journal of Organic Chemistry, 2013).

The target of test [1] is T1, recombinant human HDAC6 (rHDAC6) (Homo sapiens, UniProt Q9UBN7).
T1 construct: purchased BPS Bioscience (US)
T1 sequence (Q9UBN7 1-1215): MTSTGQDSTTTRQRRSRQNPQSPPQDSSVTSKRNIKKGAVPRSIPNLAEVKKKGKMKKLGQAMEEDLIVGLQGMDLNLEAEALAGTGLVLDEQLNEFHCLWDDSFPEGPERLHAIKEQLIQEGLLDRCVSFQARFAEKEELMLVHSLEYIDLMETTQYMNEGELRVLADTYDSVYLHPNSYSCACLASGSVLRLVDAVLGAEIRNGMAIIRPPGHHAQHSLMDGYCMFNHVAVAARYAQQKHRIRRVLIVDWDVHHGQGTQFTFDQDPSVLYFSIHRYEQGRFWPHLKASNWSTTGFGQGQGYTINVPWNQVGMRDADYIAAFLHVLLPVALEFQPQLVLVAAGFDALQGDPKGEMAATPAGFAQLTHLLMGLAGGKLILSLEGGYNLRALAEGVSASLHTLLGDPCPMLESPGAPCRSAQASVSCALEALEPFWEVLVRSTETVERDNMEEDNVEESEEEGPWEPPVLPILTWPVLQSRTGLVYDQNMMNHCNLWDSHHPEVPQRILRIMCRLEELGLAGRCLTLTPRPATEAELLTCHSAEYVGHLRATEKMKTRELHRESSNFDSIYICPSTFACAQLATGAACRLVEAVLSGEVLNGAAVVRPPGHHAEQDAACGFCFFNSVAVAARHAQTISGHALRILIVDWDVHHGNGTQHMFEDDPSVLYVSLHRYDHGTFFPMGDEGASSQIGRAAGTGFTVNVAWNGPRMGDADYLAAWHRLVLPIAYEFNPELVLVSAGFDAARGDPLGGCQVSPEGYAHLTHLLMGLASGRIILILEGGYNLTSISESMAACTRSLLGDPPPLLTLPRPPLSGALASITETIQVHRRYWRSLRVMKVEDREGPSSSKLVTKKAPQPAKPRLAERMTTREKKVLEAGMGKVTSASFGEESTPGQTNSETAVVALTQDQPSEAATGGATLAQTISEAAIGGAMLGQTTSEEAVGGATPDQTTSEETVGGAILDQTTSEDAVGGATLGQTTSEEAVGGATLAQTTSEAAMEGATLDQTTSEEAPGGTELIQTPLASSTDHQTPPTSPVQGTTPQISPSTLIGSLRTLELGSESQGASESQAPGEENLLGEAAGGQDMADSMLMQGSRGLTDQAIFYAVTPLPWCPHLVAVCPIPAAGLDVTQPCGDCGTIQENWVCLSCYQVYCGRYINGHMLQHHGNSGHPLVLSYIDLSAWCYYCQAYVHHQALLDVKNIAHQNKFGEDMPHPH
The test is described as follows: rHDAC6 inhibition, coupled Boc-Lys(Ac)-AMC/trypsin fluorescence assay. Conditions: purified recombinant human HDAC6. Type of test: biochemical. The method, then:
(§1) HDAC assays were performed as previously reported. The recombinant human histone deacetylases rHDAC1 and rHDAC6 were obtained from BPS Bioscience (US).
(§2) All reactions were performed in black half area 96-well microplates (Greiner bio-one, Germany) according to the general procedure described by Wegener et al. with some minor modifications. […] The buffer components were purchased from Merck (Germany), Roth (Germany) and Sigma-Aldrich.
(§3) The enzyme reaction was initiated by the addition of Boc-Lys(Ac)-AMC substrate. The reaction mixture was incubated at 30 °C in the dark and stopped after 60 min by the addition of a mixture of 70 µM trypsin and 200 nM SAHA. The fluorescence of AMC served as an indirect measure of HDAC enzyme activity. The kinetics of AMC release was measured on a PolarStar fluorescence plate reader (BMG) with an excitation wavelength of 340 nm and an emission wavelength of 460 nm. Complete cleavage of deacetylated Boc-Lys-AMC by trypsin was achieved after about 10–15 min. The fluorescence intensity of the plateau was averaged over at least 5 min and normalized with respect to the percentage of enzyme activity. Finally, the normalized fluorescence intensities were plotted versus the concentration of test compounds and fitted to a four-parameter logistic model to calculate the IC50 values.

In test [2] the test system is MCF7 (human breast carcinoma). The test is described as follows: Cytotoxicity against MCF7 cell line. Type of test: cell-based. The settings on record: MCF7 cells. The method, then: (§4) Thioesters 7–9 were assayed against A549, MCF7 and WI38 cell lines, in addition to recombinant human rHDAC1 (class I) and recombinant human HDAC6 (rHDAC6, class II) as previously reported. Psammaplin A (3), prereduced psammaplin A thiol (4), and SAHA (1) were included as control compounds. IC50^6/1 is defined by the ratio IC50^HDAC6/IC50^HDAC1 and was used as an indicator of isoform selectivity in vitro.

Test [3] concerns the target T2, rHDAC1 (Homo sapiens, UniProt Q13547).
T2 construct: purchased BPS Bioscience (US)
Nature of the test: rHDAC1 inhibition as a function of initial incubation time. The settings on record: thioester at IC50 concentration, incubation 1–60 minutes. Type of test: biochemical. The protocol:
An alternative hypothesis for the high potency of the thioester inhibitors is that the HDAC enzyme cleaves the acetyl group directly, utilizing its intrinsic deacetylase activity. Inhibition of rHDAC1 was measured (at the IC50 concentration of thioester) as a function of the initial incubation time (1–60 minutes) of rHDAC1 with thioesters 7 and 9 (Figure 2). […] Finally, we assessed whether the use of thioester inhibitors could influence the assay readout, when using our coupled HDAC assay. Trypsin-dependant generation of the fluorescence intensity (2nd step of our coupled assay) was discounted as a source of false-positive activity, since trypsin was used in a large excess (430 μM) compared to the thioesters (low micromolar to nanomolar). Direct compound inhibition of trypsin would therefore not be significant in the overall readout on stoichiometry grounds.
Figure 2 rHDAC1 was incubated with a predetermined IC50 concentration of 7 (left) and 9 (right) for 1–60 minutes, and the remaining rHDAC1 activity (Y-axis, %) was recorded and plotted as a function of the incubation time (X-axis, minutes).
A serial dilution of test compounds was pre-incubated with 7.4 nM rHDAC1 or 2.8 nM rHDAC6, at 21 ± 1 °C in the dark for different periods of time as indicated. […] The fluorescence of AMC served as an indirect measure of HDAC enzyme activity. […]

Test [4] has as its target T2, rHDAC1. The test is described as follows: rHDAC1 inhibition, coupled Boc-Lys(Ac)-AMC/trypsin fluorescence assay. The settings on record: for IC50^6/1 (ratio IC50 HDAC6/IC50 HDAC1): isoform selectivity in vitro; for IC50: purified recombinant human HDAC1. Type of test: biochemical. The method, then: as §1, §2, §3
The test system of test [5] is A549 (human lung carcinoma). The test is described as follows: Cytotoxicity against A549 cell line. Type of test: cell-based. Conditions: for IC50: Homo sapiens, A549 cells. The method, then: as §4
For test [6], the system named is WI38 (normal human lung fibroblast). Nature of the test: Cytotoxicity against WI38 cell line. Type of test: cell-based. The settings on record: for IC50: Homo sapiens, WI-38, WI38 cells. The method, then: as §4
Test [7] addresses T1, recombinant human HDAC6 (rHDAC6). Also noted: method as in PMID 22280363. Conditions: in brackets, cited from earlier work.
For test [8], the system named is MCF7 (human breast carcinoma). Also noted: method as in PMID 22280363. The settings on record: in brackets, cited from earlier work.
Test [9] deals with A549 (human lung carcinoma). Also on record: method as in PMID 22280363. Conditions: in brackets, cited from earlier work.
The target of test [10] is T2, rHDAC1. Also noted: method as in PMID 22280363. The settings on record: in brackets, cited from earlier work.
Test [11] deals with WI38 (normal human lung fibroblast). Also on record: method as in PMID 22280363. Conditions: in brackets, cited from earlier work.
Setting [12] is: first value: corresponding disulfide.
[13] abbreviates: second value: corresponding thiol.

SMILES strings stand for the structures. Where two headings read alike, the source gives them in different places.

T2 sequence (Q13547 whole entry): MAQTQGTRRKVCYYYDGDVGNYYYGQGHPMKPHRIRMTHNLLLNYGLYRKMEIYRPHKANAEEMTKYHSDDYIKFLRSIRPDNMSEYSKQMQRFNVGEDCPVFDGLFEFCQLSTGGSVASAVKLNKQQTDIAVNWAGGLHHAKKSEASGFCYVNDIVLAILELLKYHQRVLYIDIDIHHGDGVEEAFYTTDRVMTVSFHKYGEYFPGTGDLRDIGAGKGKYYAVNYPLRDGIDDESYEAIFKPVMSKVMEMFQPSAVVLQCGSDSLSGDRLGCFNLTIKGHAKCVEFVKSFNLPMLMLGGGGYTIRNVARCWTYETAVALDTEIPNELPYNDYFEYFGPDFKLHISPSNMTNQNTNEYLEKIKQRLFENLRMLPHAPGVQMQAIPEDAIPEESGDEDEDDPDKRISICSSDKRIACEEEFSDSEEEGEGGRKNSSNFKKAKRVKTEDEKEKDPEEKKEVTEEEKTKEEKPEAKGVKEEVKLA

On to `CO/N=C(\Cc1ccc(OC)c(Br)c1)C(=O)NCCSC(C)=O` [Compound 7, (E)-(S)-2-(3-(3-Bromo-4-methoxyphenyl)-2-(methoxyimino)propanamido)ethyl ethanethioate], for which the IC50 (commonly the concentration at which inhibition is half-maximal) was > 50 µM in [1]; 12 µM in [2]; 0.12 µM at rHDAC1 [4]; 44 µM in [5]; 17 µM in test [6]. The “variation of rHDAC1 inhibition with initial incubation time” value at rHDAC1 [3] is “No variation of enzymatic inhibition”. Also, the “IC50^6/1 (ratio IC50 HDAC6/IC50 HDAC1)” value at rHDAC1 [4] is > 417. Besides, the “times less potent than the corresponding free thiol analogue against rHDAC1” value on rHDAC1 [4] (thioester vs free thiol) is 8 times.
On to `COc1ccc(CC(=O)C(=O)NCCSC(C)=O)cc1Br` [Compound 9, (S)-2-(3-(3-Bromo-4-methoxyphenyl)-2-oxopropanamido)ethyl ethanethioate], for which the half-inhibitory concentration (IC50) in test [1] was 9.5 µM; in test [2] it was 21 µM; on rHDAC1 [4] it was 0.48 µM; in test [5], > 50 µM; in [6] it was > 50 µM. The “variation of rHDAC1 inhibition with initial incubation time” value at rHDAC1 [3] is “No variation of enzymatic inhibition”. The “IC50^6/1 (ratio IC50 HDAC6/IC50 HDAC1)” value on rHDAC1 [4] is > 20. The “activity against A549 cells at the highest concentration tested” value in test [5] (50 μM) was “inactive”. For the same compound, the “activity against WI38 cells at the highest concentration tested” value in test [6] (50 μM) was “inactive”.
Turning to `O=C(NCCSSCCNC(=O)/C(Cc1ccc(O)c(Br)c1)=N/O)/C(Cc1ccc(O)c(Br)c1)=N/O` [PSA (3), psammaplin A], the IC50 came to 2.8 µM in [1]; 1.3 µM in test [2]; 0.045 µM at rHDAC1 [4]; 7.5 µM in test [5]; 3.4 µM in test [6]. For the same compound, at rHDAC1 [4], the “IC50^6/1 (ratio IC50 HDAC6/IC50 HDAC1)” value worked out at 62.
Turning to `O=C(NCCS)/C(Cc1ccc(O)c(Br)c1)=N/O` [PSA-SH (4)], the 50% inhibitory concentration (IC50) in [1] was 0.36 µM; in test [2], 2.4 µM; at rHDAC1 [4], 0.001 µM; in [5] it was 2.5 µM; in test [6], 3.4 µM. On rHDAC1 [4], the “IC50^6/1 (ratio IC50 HDAC6/IC50 HDAC1)” value is 360.
As to `O=C(CCCCCCC(=O)Nc1ccccc1)NO` [SAHA (1), suberoylanilide hydroxamic acid], the “IC50^6/1 (ratio IC50 HDAC6/IC50 HDAC1)” value on rHDAC1 [4] is reported as 7.
With `CON=C(Cc1ccc(OC)c(Br)c1)C(=O)NCCSSCCNC(=O)C(Cc1ccc(OC)c(Br)c1)=NOC` [disulfide of 7], the IC50 in test [7] (setting [12]) is > 50 µM; in test [8] (setting [12]) it was 13 µM; in test [9] (setting [12]) it was 46 µM; on rHDAC1 [10] (setting [12]), 0.22 µM. Further, at rHDAC1 [10] (setting [12]), the “IC50^6/1 (ratio IC50 HDAC6/IC50 HDAC1)” value is on record as > 230.
With `COc1ccc(CC(=NO)C(=O)NCCSSCCNC(=O)C(Cc2ccc(OC)c(Br)c2)=NO)cc1Br` [disulfide of 8], the IC50 in test [7] (setting [12]) is 2 µM; in test [8] (setting [12]) it was 0.63 µM; in [11] (setting [12]) it was 2.2 µM; in test [9] (setting [12]), 4.1 µM; at rHDAC1 [10] (setting [12]), 0.043 µM. Moreover, at rHDAC1 [10] (setting [12]), the “IC50^6/1 (ratio IC50 HDAC6/IC50 HDAC1)” value was 46.
For `COc1ccc(CC(=O)C(=O)NCCSSCCNC(=O)C(=O)Cc2ccc(OC)c(Br)c2)cc1Br` [disulfide of 9], the half-maximal inhibitory concentration (IC50) was 8 µM in test [7] (setting [12]); 3.9 µM in test [8] (setting [12]); 4.1 µM in test [11] (setting [12]); 10 µM in test [9] (setting [12]); 9 µM at rHDAC1 [10] (setting [12]). Also, the “IC50^6/1 (ratio IC50 HDAC6/IC50 HDAC1)” value at rHDAC1 [10] (setting [12]) is listed as 0.9.
Turning to `CON=C(Cc1ccc(OC)c(Br)c1)C(=O)NCCS` [thiol of 7], the half-maximal inhibitory concentration (IC50) is 2.7 µM in test [7] (setting [13]); 12 µM in [8] (setting [13]); 10 µM in [11] (setting [13]); 5.1 µM in [9] (setting [13]); 0.015 µM at rHDAC1 [10] (setting [13]). In addition, on rHDAC1 [10] (setting [13]), the “IC50^6/1 (ratio IC50 HDAC6/IC50 HDAC1)” value was 180.
On to `COc1ccc(CC(=NO)C(=O)NCCS)cc1Br` [thiol of 8], for which the IC50 in test [7] (setting [13]) was 3.2 µM; in test [8] (setting [13]), 0.61 µM; in test [11] (setting [13]), 1.1 µM; in [9] (setting [13]), 0.16 µM; on rHDAC1 [10] (setting [13]), 0.002 µM. Besides, the “IC50^6/1 (ratio IC50 HDAC6/IC50 HDAC1)” value on rHDAC1 [10] (setting [13]) is 1772.
Consider `COc1ccc(CC(=O)C(=O)NCCS)cc1Br` [thiol of 9], for which the 50% inhibitory concentration (IC50) in [7] (setting [13]) was 0.25 µM; in [8] (setting [13]) it was 3.4 µM; in test [11] (setting [13]), 14 µM; in [9] (setting [13]) it was 11 µM; at rHDAC1 [10] (setting [13]), 1.1 µM. For the same compound, the “IC50^6/1 (ratio IC50 HDAC6/IC50 HDAC1)” value at rHDAC1 [10] (setting [13]) is 0.22.
